The results in this text go back to patent US12331026B2 (NiKang Therapeutics, Inc., priority 2022, dated 2025).

The test has as its target T1, CDK2 (Homo sapiens, UniProt P24941).
T1 construct: endogenous in cells; host or cells: OVCAR3 cells
Nature of the test: Phospho-RB measurement in OVCAR3 cells (HTRF phospho-RB S807/811). The note with it: phosphorylation of RB protein at S807/811, HTRF, 24 h compound treatment, 0.3 to 10,000 nM, read-out: pRb (uM). It is filed as cell-based. In outline:
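IC50 values come from four-parameter logistic fits of the DMSO-normalised 665/620 nm TR-FRET ratio for phospho-RB (S807/811). Antibody detection ran 4 h at room temperature.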
For the molecule `N#CC12CCC(CC1)N2c1nc(-c2cccc(NS(=O)(=O)c3c(F)cccc3F)c2F)c(-c2ccnc(NC3CC4(C3)CS(=O)(=O)C4)n2)s1` [Example 54, N-(3-(2-(1-cyano-7-azabicyclo[2.2.1]heptan-7-yl)-5-(2-((2,2-dioxido-2-thiaspiro[3.3]heptan-6-yl)amino)pyrimidin-4-yl)thiazol-4-yl)-2-fluorophenyl)-2,6-difluorobenzenesulfonamide], the IC50 is 0.2 µM. With `CC1(C)CCN1c1nc(-c2cccc(NS(=O)(=O)c3c(F)cccc3F)c2F)c(-c2ccnc(N[C@H]3[C@@H]4CS(=O)(=O)C[C@@H]43)n2)s1` [Example 100, N-(3-(2-(2,2-dimethylazetidin-1-yl)-5-(2-(((1R,5S,6r)-3,3-dioxido-3-thiabicyclo[3.1.0]hexan-6-yl)amino)pyrimidin-4-yl)thiazol-4-yl)-2-fluorophenyl)-2,6-difluorobenzenesulfonamide], the IC50 amounted to 0.1 µM. For `O=S1(=O)C[C@@H]2[C@H](C1)[C@@H]2Nc1nccc(-c2sc(N3C4CCC3CN(C3CC(F)(F)C3)C4)nc2-c2cccc(NS(=O)(=O)c3c(F)cccc3F)c2F)n1` [Example 94, N-(3-(2-(3-(3,3-difluorocyclobutyl)-3,8-diazabicyclo[3.2.1]octan-8-yl)-5-(2-(((1R,5S,6s)-3,3-dioxido-3-thiabicyclo[3.1.0]hexan-6-yl)amino)pyrimidin-4-yl)thiazol-4-yl)-2-fluorophenyl)-2,6-difluorobenzenesulfonamide], the IC50 came out at 0.28 µM. Take `CN1C2CCC1CN(c1nc(-c3cccc(NS(=O)(=O)c4c(F)cccc4F)c3F)c(-c3ccnc(NC4CC5(C4)CS(=O)(=O)C5)n3)s1)C2` [Example 23, N-(3-(5-(2-((2,2-dioxido-2-thiaspiro[3.3]heptan-6-yl)amino)pyrimidin-4-yl)-2-(8-methyl-3,8-diazabicyclo[3.2.1]octan-3-yl)thiazol-4-yl)-2-fluorophenyl)-2,6-difluorobenzenesulfonamide]: the IC50 stood at 1.74 µM. Take `O=S1(=O)C[C@@H]2[C@H](C1)[C@H]2Nc1nccc(-c2sc(C3(C(F)F)CC3)nc2-c2cccc(NS(=O)(=O)c3c(F)cccc3F)c2F)n1` [Example 98, N-(3-(2-(1-(difluoromethyl)cyclopropyl)-5-(2-(((1R,5S,6r)-3,3-dioxido-3-thiabicyclo[3.1.0]hexan-6-yl)amino)pyrimidin-4-yl)thiazol-4-yl)-2-fluorophenyl)-2,6-difluorobenzenesulfonamide]: the IC50 is 0.13 µM. Take `O=S1(=O)CC2(CC(Nc3nccc(-c4sc(C56CC(Cl)(C5)C6)nc4-c4cccc(NS(=O)(=O)c5c(F)cccc5C(F)(F)F)c4F)n3)C2)C1` [Example 150, N-(3-(2-(3-chlorobicyclo[1.1.1]pentan-1-yl)-5-(2-((2,2-dioxido-2-thiaspiro[3.3]heptan-6-yl)amino)pyrimidin-4-yl)thiazol-4-yl)-2-fluorophenyl)-2-fluoro-6-(trifluoromethyl)benzenesulfonamide]: the IC50 is 0.17 µM. In the case of `O=S1(=O)CC2(CC(Nc3nccc(-c4sc(N5C6CCC5CC(F)(F)C6)nc4-c4cccc(NS(=O)(=O)c5c(F)cccc5F)c4F)n3)C2)C1` [Example 12, N-(3-(2-(3,3-difluoro-8-azabicyclo[3.2.1]octan-8-yl)-5-(2-((2,2-dioxido-2-thiaspiro[3.3]heptan-6-yl)amino)pyrimidin-4-yl)thiazol-4-yl)-2-fluorophenyl)-2,6-difluorobenzenesulfonamide], the IC50 stood at 0.068 µM.

With `C[C@@H]1COC[C@@H](C)N1c1nc(-c2cccc(NS(=O)(=O)c3c(F)cccc3F)c2F)c(-c2ccnc(NC3CC4(C3)CS(=O)(=O)C4)n2)s1` [Example 56, N-(3-(2-((3R,5R)-3,5-dimethylmorpholino)-5-(2-((2,2-dioxido-2-thiaspiro[3.3]heptan-6-yl)amino)pyrimidin-4-yl)thiazol-4-yl)-2-fluorophenyl)-2,6-difluorobenzenesulfonamide], the IC50 stood at 0.11 µM. The value for `COc1cccc(F)c1S(=O)(=O)Nc1cccc(-c2nc(N3C4CCC3CN(C)C4)sc2-c2ccnc(NC3CC4(C3)CS(=O)(=O)C4)n2)c1F` [Example 57, N-(3-(5-(2-((2,2-dioxido-2-thiaspiro[3.3]heptan-6-yl)amino)-pyrimidin-4-yl)-2-(3-methyl-3,8-diazabicyclo[3.2.1]octan-8-yl)thiazol-4-yl)-2-fluorophenyl)-2-fluoro-6-methoxybenzenesulfonamide] was 0.6 µM. The figure for `COc1cccc(C(F)(F)F)c1S(=O)(=O)Nc1cccc(-c2nc(N3C4CCC3CN(C)C4)sc2-c2ccnc(NC3CC4(C3)CS(=O)(=O)C4)n2)c1F` [Example 74, N-(3-(5-(2-((2,2-dioxido-2-thiaspiro[3.3]heptan-6-yl)amino)-pyrimidin-4-yl)-2-(3-methyl-3,8-diazabicyclo[3.2.1]octan-8-yl)thiazol-4-yl)-2-fluorophenyl)-2-methoxy-6-(trifluoromethyl)benzenesulfonamide] is 0.63 µM. Consider `O=S1(=O)CC2(CC(Nc3nccc(-c4sc(C56CCC(CC5)C6)nc4-c4cccc(NS(=O)(=O)c5c(F)cccc5F)c4F)n3)C2)C1` [Example 32, N-(3-(2-(bicyclo[2.2.1]heptan-1-yl)-5-(2-((2,2-dioxido-2-thiaspiro[3.3]heptan-6-yl)amino)pyrimidin-4-yl)thiazol-4-yl)-2-fluorophenyl)-2,6-difluorobenzenesulfonamide], for which the IC50 worked out at 0.08 µM. Take `C[C@@H]1CN(C)C[C@@H](C)N1c1nc(-c2cccc(NS(=O)(=O)c3c(F)cccc3F)c2F)c(-c2ccnc(NC3CC4(C3)CS(=O)(=O)C4)n2)s1` [Example 60, N-(3-(5-(2-((2,2-dioxido-2-thiaspiro[3.3]heptan-6-yl)amino)-pyrimidin-4-yl)-2-((2R,6R)-2,4,6-trimethylpiperazin-1-yl)thiazol-4-yl)-2-fluorophenyl)-2,6-difluorobenzenesulfonamide]: the IC50 is 0.9 µM. As to `C[C@H]1COC[C@H](C)N1c1nc(-c2cccc(NS(=O)(=O)c3c(F)cccc3F)c2F)c(-c2ccnc(NC3CC4(C3)CS(=O)(=O)C4)n2)s1` [Example 4, N-(3-(2-((3S,5S)-3,5-dimethylmorpholino)-5-(2-((2,2-dioxido-2-thiaspiro[3.3]heptan-6-yl)amino)pyrimidin-4-yl)thiazol-4-yl)-2-fluorophenyl)-2,6-difluorobenzenesulfonamide], the IC50 amounted to 0.13 µM.

With `O=S1(=O)CC2(CC(Nc3nccc(-c4sc(N5C6CCC5CN(C5CC(F)(F)C5)C6)nc4-c4cccc(NS(=O)(=O)c5c(F)cccc5C(F)F)c4F)n3)C2)C1` [Example 50, N-(3-(2-(3-(3,3-difluorocyclobutyl)-3,8-diazabicyclo[3.2.1]octan-8-yl)-5-(2-((2,2-dioxido-2-thiaspiro[3.3]heptan-6-yl)amino)pyrimidin-4-yl)thiazol-4-yl)-2-fluorophenyl)-2-(difluoromethyl)-6-fluorobenzenesulfonamide], the IC50 came to 0.19 µM.

`O=S1(=O)C[C@@H]2[C@H](C1)[C@H]2Nc1nccc(-c2sc(C34CC(C3)C4)nc2-c2cccc(NS(=O)(=O)c3c(OC(F)F)cccc3C(F)(F)F)c2F)n1` [Example 125, N-(3-(2-(bicyclo[1.1.1]pentan-1-yl)-5-(2-(((1R,5S,6r)-3,3-dioxido-3-thiabicyclo[3.1.0]hexan-6-yl)amino)pyrimidin-4-yl)thiazol-4-yl)-2-fluorophenyl)-2-(difluoromethoxy)-6-(trifluoromethyl)-benzenesulfonamide]: the IC50 was determined as 4.51 µM.
